Assay results as given in US11857535B2, “Methods of treating mutant lymphomas” (Kymera Therapeutics, Inc., priority 2020, dated 2024).
Read-outs that look alike come from different tables or passages of the source.

What was measured:
[1] = Compound exposure (PK) in plasma, spleen and tumor of OCI-Ly10 xenograph mice; type: in vivo, mouse
Description: At termination: At pre-determined time points based on study design, animals were humanely sacrificed by CO2. Blood was obtained by cardiac puncture for isolation of plasma, any residual tumor was removed and divided in 2 portions, 1 (minimal) for terminal compound exposure and 1 to determine IRAK4 and actin. Compound was determined in tumor and plasma using LC/MS with calibrated standards.

[2] = 7.2 Pharmacokinetic and tolerability characterization, intravenous bolus, cynomolgus monkeys; conditions: cynomolgus monkey, in vivo, IV dosing in NHP
Source text: 7.2 Pharmacokinetic and Tolerability Characterization following Intravenous Bolus Administration to Male and Female Cynomolgus Monkeys
The objective of this study is to determine the pharmacokinetics and tolerability of Compound A following intravenous bolus administrations of Compound A on a single day or two consecutive days in male and female cynomolgus monkeys. The test article will be measured in plasma at selected time points for up to 14 days post dosing.
Purpose: To prepare a 20 mgA/mL solution of 20%:80% Compound A:HPBCD SDD in an aqueous vehicle comprised of 5 wt % TPGS in 0.1 M Acetate suitable for IV dosing in NHP. […]
Bioanalytical method development and sample analysis • LC-MS/MS method development: • 1. A LC-MS/MS method for the quantitative determination of test compound in biological matrix will be developed under non-GLP compliance. • 2. […] N in 1 cassette LC-MS/MS method can be developed for samples coming from different studies as long as these studies belong to same sponsor and the interference among all cassette analytes will be evaluated during the method development. • 5. […] If such kind cassette assay is still requested by the study sponsor, interference between analytes will not be evaluated but the LC separation of those analytes by using a generic method will be tried. […]

[3] = C.B. 17 SCID, mouse, plasma, 10 mg/kg, 10 mpk PO

For `CC(C)(O)c1cc2nc([C@H]3CC[C@H](CN4CC5(CC(CCNc6cccc7c6C(=O)N(C6CCC(=O)NC6=O)C7=O)C5)C4)CC3)sc2cc1NC(=O)c1cccc(C(F)(F)F)n1` (stereo partly shown) [Compound A, N-(2-((1r,4r)-4-((6-(2-((2-(2,6-dioxopiperidin-3-yl)-1,3-dioxoisoindolin-4-yl)amino)ethyl)-2-azaspiro[3.3]heptan-2-yl)methyl)cyclohexyl)-5-(2-hydroxypropan-2-yl)benzo[d]thiazol-6-yl)-6-(trifluoromethyl)picolinamide], the F ([1]; 10 mpk PO) was 19.0%, the AUC(0-t) [1, 3] was 2.83 µM·h and the Cmax [1, 3] was 180 nM. The Tmax [1, 3] was 8 h, the half-life [1, 3] was 9.35 h and the concentration at 24 h ([1]; C.B. 17 SCID, mouse, plasma, 3 mpk, after 5d dosing, read-out: Plasma C24 h) was 10 nM. It also gave a concentration at 24 h ([1]; C.B. 17 SCID, mouse, plasma, 10 mpk PO, read-out: C24 h) of 55 nM, a concentration at 24 h ([1]; C.B. 17 SCID, mouse, plasma, 10 mpk, after 5d dosing, read-out: Plasma C24 h) of 80 nM and a concentration at 24 h ([1]; C.B. 17 SCID, mouse, plasma, 30 mpk, after 5d dosing, read-out: Plasma C24 h) of 640 nM. For the same compound, the concentration at 24 h ([1]; C.B. 17 SCID, mouse, plasma, based on either a 3 mpk or 10 mpk dose, read-out: Target exposure for efficacy in OCI-Ly10: steady state C24h) was 10 to 80 nM, the concentration at 24 h ([1]; C.B. 17 SCID, mouse, spleen, 3 mpk, after 5d dosing, read-out: Spleen C24 h) was 500 nM and the concentration at 24 h ([1]; C.B. 17 SCID, mouse, spleen, 10 mpk, after 5d dosing, read-out: Spleen C24 h) was 4100 nM. The concentration at 24 h ([1]; C.B. 17 SCID, mouse, spleen, 30 mpk, after 5d dosing, read-out: Spleen C24 h) was 59000 nM, the concentration at 24 h ([1]; C.B. 17 SCID, mouse, tumor, 3 mpk, after 5d dosing, read-out: Tumor C24 h) was 430 nM and the concentration at 24 h ([1]; C.B. 17 SCID, mouse, tumor, 10 mpk, after 5d dosing, read-out: Tumor C24 h) was 4200 nM. For the same compound, the concentration at 24 h ([1]; C.B. 17 SCID, mouse, tumor, 30 mpk, after 5d dosing, read-out: Tumor C24 h) was 64000 nM, the “tissue exposure relative to plasma” value ([1]; single dose, FIG. 4) was “high tissue exposure relative to plasma” and the target exposure range AUC0-168 ([2]; schedule D1, 2, read-out: Target exposure Range (Ly10-DHL2) AUC0-168) was 12 to 36 µM·h. The target exposure range AUC0-168 ([2]; schedule D1, read-out: Target exposure Range (Ly10-DHL2) AUC0-168) was 24 to 72 µM·h.
